Assay results: patent US20240108011A1, “HERBICIDAL COMBINATIONS AND COMPOSITIONS AND METHODS FOR TREATING WEEDS USING THE SAME” (UPL Corporation Limited, priority 2021, published 2024)

Experiments:
Type in all cases: in vivo
Euphorbia heterophylla = test: Greenhouse trial, weed control efficacy on Euphorbia heterophylla
Description: In this example, synergy of the combination of L-glufosinate ammonium (150 gai/ha) and 2,4-D choline (137 gai/ha) Euphorbia heterophylla was determined using the calculated percentage efficacy after 7, 14, 21 days of application (DAA). The results are recorded in the Table 4 below:
In this example, synergy of using the combination of L-glufosinate ammonium (150 gai/ha) and 2,4-D choline (228 gai/ha) on Euphorbia heterophylla was determined using the calculated percentage efficacy after 14, 21 days of application (DAA).

Borreria verticilata = test: Greenhouse trial, weed control efficacy on Borreria verticilata; conditions: 7 DAA
Description: In this example, synergy from the combination of L-glufosinate ammonium (150 gai/ha) and 2,4-D choline (137 gai/ha) on Borrelia verticilata was determined using the calculated percentage efficacy after 7 days of application (DAA). The results are recorded in Table 1 below:
In this example, synergy of the combination of L-glufosinate ammonium (150 gai/ha) and 2,4-D choline (228 gai/ha) on Borrelia verticilata was determined using the calculated percentage efficacy after 7 days of application (DAA).

Eleusine indica = test: Greenhouse trial, weed control efficacy on Eleusine indica; conditions: Table 3
Description: In this example, synergy of the combination of L-glufosinate ammonium (150 gai/ha) and 2,4-D choline (228 gai/ha) on Eleusine indica was determined using the calculated percentage efficacy after 7, 14, 21 and 28 days of application (DAA).

`C[N+](C)(C)CCO.O=C([O-])COc1ccc(Cl)cc1Cl` [2,4-D choline] was tested. Which “Observed efficacy (%) of 2,4-D choline (137 gai/ha)” value (Euphorbia heterophylla; Table 4, 7 DAA) did it give?
The value was 35%.

What about the “Observed efficacy (%) of 2,4-D choline (137 gai/ha)” value (Euphorbia heterophylla; Table 4, 14 DAA) of the same molecule?
The value was 30%.

What about the “Observed efficacy (%) of 2,4-D choline (137 gai/ha)” value (Euphorbia heterophylla; Table 4, 21 DAA) of the same molecule?
The value was 25%.

And the “Observed efficacy (%) of 2,4-D choline (228 gai/ha)” value (Euphorbia heterophylla; Table 5, 14 DAA)?
Its value is 30%.

What about the “Observed efficacy (%) of 2,4-D choline (228 gai/ha)” value (Euphorbia heterophylla; Table 5, 21 DAA) of the same molecule?
The value was 30%.

What about the “Observed efficacy (%) of 2,4-D choline (137 gai/ha)” value (Borreria verticilata; Table 1, 137 gai/ha) of the same molecule?
Its value is 30%.

What about the “Observed efficacy (%) of 2,4-D choline (228 gai/ha)” value (Borreria verticilata; Table 2, 228 gai/ha) of the same molecule?
The value was 30%.

What about the “Observed efficacy (%) of 2,4-D choline (228 gai/ha)” value (Eleusine indica; 7 DAA) of the same molecule?
The value was 10%.

What about the “Observed efficacy (%) of 2,4-D choline (228 gai/ha)” value (Eleusine indica; 14 DAA) of the same molecule?
Its value is 10%.

What about the “Observed efficacy (%) of 2,4-D choline (228 gai/ha)” value (Eleusine indica; 21 DAA) of the same molecule?
Its value is 10%.

And the “Observed efficacy (%) of 2,4-D choline (228 gai/ha)” value (Eleusine indica; 28 DAA)?
Its value is 5%.

Which “Observed efficacy (%) of L-glufosinate ammonium (150 gai/ha)” value (“Observed efficacy (%) … (150 gai/ha)” below) (Euphorbia heterophylla; Table 4, 7 DAA) does the source give for `CP(=O)(O)CC[C@H](N)C(=O)O.N` [L-glufosinate ammonium, ammonium (2S)-2-amino-4-(methylphosphinato)butyric acid] here?
Its value is 95%.

And the “Observed efficacy (%) … (150 gai/ha)” value (Euphorbia heterophylla; Table 4, 14 DAA)?
The value was 98%.

And the “Observed efficacy (%) … (150 gai/ha)” value (Euphorbia heterophylla; Table 4, 21 DAA)?
Its value is 98%.

And the “Observed efficacy (%) … (150 gai/ha)” value (Euphorbia heterophylla; Table 5, 14 DAA)?
The value was 98%.

And the “Observed efficacy (%) … (150 gai/ha)” value (Euphorbia heterophylla; Table 5, 21 DAA)?
Its value is 98%.

What about the “Observed efficacy (%) … (150 gai/ha)” value (Borreria verticilata; Table 1) of the same molecule?
The value was 65%.

What about the “Observed efficacy (%) … (150 gai/ha)” value (Borreria verticilata; Table 2) of the same molecule?
Its value is 65%.

What about the “Observed efficacy (%) … (150 gai/ha)” value (Eleusine indica; 7 DAA) of the same molecule?
Its value is 70%.

What about the “Observed efficacy (%) … (150 gai/ha)” value (Eleusine indica; 14 DAA) of the same molecule?
The value was 65%.

And the “Observed efficacy (%) … (150 gai/ha)” value (Eleusine indica; 21 DAA)?
Its value is 60%.

What about the “Observed efficacy (%) … (150 gai/ha)” value (Eleusine indica; 28 DAA) of the same molecule?
The value was 50%.
